Four compounds from PubChem BioAssay AID2060497 (Molecular Pharmacology Branch, DTP, NCI, 2025) can be followed below.

Each structure is given as a SMILES string.
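Further: spheroids exposed to compounds for one week before readout; percent viability relative to DMSO vehicle wells taken as 100%.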

The first test relates to 317291-083-R-J1-PDC complex spheroids, viability. Description: Anticancer human tumor 317291-083-R-J1-PDC patient-derived soft tissue sarcoma cell line growth inhibition [GQUAD]. The following applies: second compound 3.16 µM; first compound 0.1 µM; hits give low values. In outline: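 Viability of tumor cells grown as complex spheroids with endothelial and stromal cells, exposed to drug combinations. Top concentration at or near clinical Cmax (else 10 microM), diluted in half-log increments.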
The term viability, T/C denotes the ratio of treated to control. `O=C(c1cc(Cc2n[nH]c(=O)c3ccccc23)ccc1F)N1CCN(C(=O)C2CC2)CC1` + CN(C)c1ccc(Nc2c3ccc(NC(=O)CCN4CCCC4)cc3nc3cc(NC(=O)CCN4CCCC4)ccc23)cc1: the viability, T/C was 27.9%.

As for `COc1ccc([C@@H](O)c2cc(-c3ncnc4cc(N5CCOCC5)ccc34)c(F)cc2Cl)nn1` + Cc1[nH]c2ccc(F)cc2c1-c1nc2c3cccnc3c3ncccc3c2[nH]1, the viability, T/C is 81.8%.

Staying with this test, now noted: second compound 3.16 µM; first compound 0.316 µM; hits give low values.
Regarding `CC(C)(O)C1CCC(Nc2ccc3ncc(-c4cccc(C(F)(F)F)c4)n3n2)CC1` (configuration not stated) + Cc1cnc(CNC(=O)c2c(=O)c3ccc(N4CCCN(C)CC4)nc3n3c2sc2ccccc23)cn1, the viability, T/C is 8.5%.

As for `C=CC(=O)N1CCN(c2nc(=O)n(-c3c(C)ccnc3C(C)C)c3nc(-c4c(O)cccc4F)c(F)cc23)C(C)C1` (configuration not stated) + Cc1[nH]c2ccc(F)cc2c1-c1nc2c3cccnc3c3ncccc3c2[nH]1, the viability, T/C is 96%.

For the compound `O=C(c1cc(Cc2n[nH]c(=O)c3ccccc23)ccc1F)N1CCN(C(=O)C2CC2)CC1` + CN(C)c1ccc(Nc2c3ccc(NC(=O)CCN4CCCC4)cc3nc3cc(NC(=O)CCN4CCCC4)ccc23)cc1, the viability, T/C was 22.8%.

Consider `COc1ccc([C@@H](O)c2cc(-c3ncnc4cc(N5CCOCC5)ccc34)c(F)cc2Cl)nn1` + Cc1[nH]c2ccc(F)cc2c1-c1nc2c3cccnc3c3ncccc3c2[nH]1, for which the viability, T/C was 76.4%.

Staying with this test, now noted: second compound 3.16 µM; first compound 1 µM; hits give low values.
As to `CC(C)(O)C1CCC(Nc2ccc3ncc(-c4cccc(C(F)(F)F)c4)n3n2)CC1` (configuration not stated) + Cc1cnc(CNC(=O)c2c(=O)c3ccc(N4CCCN(C)CC4)nc3n3c2sc2ccccc23)cn1, the viability, T/C is 0.54%.

As to `C=CC(=O)N1CCN(c2nc(=O)n(-c3c(C)ccnc3C(C)C)c3nc(-c4c(O)cccc4F)c(F)cc23)C(C)C1` (configuration not stated) + Cc1[nH]c2ccc(F)cc2c1-c1nc2c3cccnc3c3ncccc3c2[nH]1, the viability, T/C is 93.1%.

Consider `O=C(c1cc(Cc2n[nH]c(=O)c3ccccc23)ccc1F)N1CCN(C(=O)C2CC2)CC1` + CN(C)c1ccc(Nc2c3ccc(NC(=O)CCN4CCCC4)cc3nc3cc(NC(=O)CCN4CCCC4)ccc23)cc1, for which the viability, T/C was 21.4%.

As for `COc1ccc([C@@H](O)c2cc(-c3ncnc4cc(N5CCOCC5)ccc34)c(F)cc2Cl)nn1` + Cc1[nH]c2ccc(F)cc2c1-c1nc2c3cccnc3c3ncccc3c2[nH]1, the viability, T/C was 91.7%.

The same test, now with this note: second compound 3.16 µM; first compound 3.16 µM; hits give low values.
For the compound `CC(C)(O)C1CCC(Nc2ccc3ncc(-c4cccc(C(F)(F)F)c4)n3n2)CC1` (configuration not stated) + Cc1cnc(CNC(=O)c2c(=O)c3ccc(N4CCCN(C)CC4)nc3n3c2sc2ccccc23)cn1, the viability, T/C was 0.12%.

With `C=CC(=O)N1CCN(c2nc(=O)n(-c3c(C)ccnc3C(C)C)c3nc(-c4c(O)cccc4F)c(F)cc23)C(C)C1` (configuration not stated) + Cc1[nH]c2ccc(F)cc2c1-c1nc2c3cccnc3c3ncccc3c2[nH]1, the viability, T/C was 74.7%.

Regarding `O=C(c1cc(Cc2n[nH]c(=O)c3ccccc23)ccc1F)N1CCN(C(=O)C2CC2)CC1` + CN(C)c1ccc(Nc2c3ccc(NC(=O)CCN4CCCC4)cc3nc3cc(NC(=O)CCN4CCCC4)ccc23)cc1, the viability, T/C is 16.6%.

For the compound `COc1ccc([C@@H](O)c2cc(-c3ncnc4cc(N5CCOCC5)ccc34)c(F)cc2Cl)nn1` + Cc1[nH]c2ccc(F)cc2c1-c1nc2c3cccnc3c3ncccc3c2[nH]1, the viability, T/C was 55.6%.

The test is the same for the next values; noted with them: second compound 3.16 µM; first compound 10 µM; hits give low values.
For the compound `CC(C)(O)C1CCC(Nc2ccc3ncc(-c4cccc(C(F)(F)F)c4)n3n2)CC1` (configuration not stated) + Cc1cnc(CNC(=O)c2c(=O)c3ccc(N4CCCN(C)CC4)nc3n3c2sc2ccccc23)cn1, the viability, T/C is 0.16%.

Consider `C=CC(=O)N1CCN(c2nc(=O)n(-c3c(C)ccnc3C(C)C)c3nc(-c4c(O)cccc4F)c(F)cc23)C(C)C1` (configuration not stated) + Cc1[nH]c2ccc(F)cc2c1-c1nc2c3cccnc3c3ncccc3c2[nH]1, for which the viability, T/C was 51.5%.

Turning to `O=C(c1cc(Cc2n[nH]c(=O)c3ccccc23)ccc1F)N1CCN(C(=O)C2CC2)CC1` + CN(C)c1ccc(Nc2c3ccc(NC(=O)CCN4CCCC4)cc3nc3cc(NC(=O)CCN4CCCC4)ccc23)cc1, the viability, T/C was 15.9%.

On to `COc1ccc([C@@H](O)c2cc(-c3ncnc4cc(N5CCOCC5)ccc34)c(F)cc2Cl)nn1` + Cc1[nH]c2ccc(F)cc2c1-c1nc2c3cccnc3c3ncccc3c2[nH]1, for which the viability, T/C was 25.2%.

Staying with this test, now noted: second compound 10 µM; first compound 0.0316 µM; hits give low values.
Regarding `CC(C)(O)C1CCC(Nc2ccc3ncc(-c4cccc(C(F)(F)F)c4)n3n2)CC1` (configuration not stated) + Cc1cnc(CNC(=O)c2c(=O)c3ccc(N4CCCN(C)CC4)nc3n3c2sc2ccccc23)cn1, the viability, T/C was 1.34%.

With `C=CC(=O)N1CCN(c2nc(=O)n(-c3c(C)ccnc3C(C)C)c3nc(-c4c(O)cccc4F)c(F)cc23)C(C)C1` (configuration not stated) + Cc1[nH]c2ccc(F)cc2c1-c1nc2c3cccnc3c3ncccc3c2[nH]1, the viability, T/C is 58.4%.

Take `O=C(c1cc(Cc2n[nH]c(=O)c3ccccc23)ccc1F)N1CCN(C(=O)C2CC2)CC1` + CN(C)c1ccc(Nc2c3ccc(NC(=O)CCN4CCCC4)cc3nc3cc(NC(=O)CCN4CCCC4)ccc23)cc1: the viability, T/C was 5%.

Take `COc1ccc([C@@H](O)c2cc(-c3ncnc4cc(N5CCOCC5)ccc34)c(F)cc2Cl)nn1` + Cc1[nH]c2ccc(F)cc2c1-c1nc2c3cccnc3c3ncccc3c2[nH]1: the viability, T/C is 68%.

The test is the same for the next values; noted with them: second compound 10 µM; first compound 0.1 µM; hits give low values.
On to `CC(C)(O)C1CCC(Nc2ccc3ncc(-c4cccc(C(F)(F)F)c4)n3n2)CC1` (configuration not stated) + Cc1cnc(CNC(=O)c2c(=O)c3ccc(N4CCCN(C)CC4)nc3n3c2sc2ccccc23)cn1, for which the viability, T/C is 0.11%.

Take `C=CC(=O)N1CCN(c2nc(=O)n(-c3c(C)ccnc3C(C)C)c3nc(-c4c(O)cccc4F)c(F)cc23)C(C)C1` (configuration not stated) + Cc1[nH]c2ccc(F)cc2c1-c1nc2c3cccnc3c3ncccc3c2[nH]1: the viability, T/C is 69.9%.

`O=C(c1cc(Cc2n[nH]c(=O)c3ccccc23)ccc1F)N1CCN(C(=O)C2CC2)CC1` + CN(C)c1ccc(Nc2c3ccc(NC(=O)CCN4CCCC4)cc3nc3cc(NC(=O)CCN4CCCC4)ccc23)cc1: the viability, T/C was 12.6%.

For the compound `COc1ccc([C@@H](O)c2cc(-c3ncnc4cc(N5CCOCC5)ccc34)c(F)cc2Cl)nn1` + Cc1[nH]c2ccc(F)cc2c1-c1nc2c3cccnc3c3ncccc3c2[nH]1, the viability, T/C is 66.5%.

The test is the same for the next values; noted with them: second compound 10 µM; first compound 0.316 µM; hits give low values.
With `CC(C)(O)C1CCC(Nc2ccc3ncc(-c4cccc(C(F)(F)F)c4)n3n2)CC1` (configuration not stated) + Cc1cnc(CNC(=O)c2c(=O)c3ccc(N4CCCN(C)CC4)nc3n3c2sc2ccccc23)cn1, the viability, T/C was 0.17%.

As for `C=CC(=O)N1CCN(c2nc(=O)n(-c3c(C)ccnc3C(C)C)c3nc(-c4c(O)cccc4F)c(F)cc23)C(C)C1` (configuration not stated) + Cc1[nH]c2ccc(F)cc2c1-c1nc2c3cccnc3c3ncccc3c2[nH]1, the viability, T/C was 78.5%.

For `O=C(c1cc(Cc2n[nH]c(=O)c3ccccc23)ccc1F)N1CCN(C(=O)C2CC2)CC1` + CN(C)c1ccc(Nc2c3ccc(NC(=O)CCN4CCCC4)cc3nc3cc(NC(=O)CCN4CCCC4)ccc23)cc1, the viability, T/C is 14.9%.

In the case of `COc1ccc([C@@H](O)c2cc(-c3ncnc4cc(N5CCOCC5)ccc34)c(F)cc2Cl)nn1` + Cc1[nH]c2ccc(F)cc2c1-c1nc2c3cccnc3c3ncccc3c2[nH]1, the viability, T/C was 79%.

Still in this test, the particulars now being: second compound 10 µM; first compound 1 µM; hits give low values.
In the case of `CC(C)(O)C1CCC(Nc2ccc3ncc(-c4cccc(C(F)(F)F)c4)n3n2)CC1` (configuration not stated) + Cc1cnc(CNC(=O)c2c(=O)c3ccc(N4CCCN(C)CC4)nc3n3c2sc2ccccc23)cn1, the viability, T/C was 0.12%.

On to `C=CC(=O)N1CCN(c2nc(=O)n(-c3c(C)ccnc3C(C)C)c3nc(-c4c(O)cccc4F)c(F)cc23)C(C)C1` (configuration not stated) + Cc1[nH]c2ccc(F)cc2c1-c1nc2c3cccnc3c3ncccc3c2[nH]1, for which the viability, T/C was 74.3%.

Take `O=C(c1cc(Cc2n[nH]c(=O)c3ccccc23)ccc1F)N1CCN(C(=O)C2CC2)CC1` + CN(C)c1ccc(Nc2c3ccc(NC(=O)CCN4CCCC4)cc3nc3cc(NC(=O)CCN4CCCC4)ccc23)cc1: the viability, T/C is 11.7%.

In the case of `COc1ccc([C@@H](O)c2cc(-c3ncnc4cc(N5CCOCC5)ccc34)c(F)cc2Cl)nn1` + Cc1[nH]c2ccc(F)cc2c1-c1nc2c3cccnc3c3ncccc3c2[nH]1, the viability, T/C was 54.8%.

Staying with this test, now noted: second compound 10 µM; first compound 3.16 µM; hits give low values.
For `CC(C)(O)C1CCC(Nc2ccc3ncc(-c4cccc(C(F)(F)F)c4)n3n2)CC1` (configuration not stated) + Cc1cnc(CNC(=O)c2c(=O)c3ccc(N4CCCN(C)CC4)nc3n3c2sc2ccccc23)cn1, the viability, T/C was 0.21%.

`C=CC(=O)N1CCN(c2nc(=O)n(-c3c(C)ccnc3C(C)C)c3nc(-c4c(O)cccc4F)c(F)cc23)C(C)C1` (configuration not stated) + Cc1[nH]c2ccc(F)cc2c1-c1nc2c3cccnc3c3ncccc3c2[nH]1: the viability, T/C is 74.9%.

`O=C(c1cc(Cc2n[nH]c(=O)c3ccccc23)ccc1F)N1CCN(C(=O)C2CC2)CC1` + CN(C)c1ccc(Nc2c3ccc(NC(=O)CCN4CCCC4)cc3nc3cc(NC(=O)CCN4CCCC4)ccc23)cc1: the viability, T/C is 31.9%.

In the case of `COc1ccc([C@@H](O)c2cc(-c3ncnc4cc(N5CCOCC5)ccc34)c(F)cc2Cl)nn1` + Cc1[nH]c2ccc(F)cc2c1-c1nc2c3cccnc3c3ncccc3c2[nH]1, the viability, T/C is 47%.

Staying with this test, now noted: second compound 10 µM; first compound 10 µM; hits give low values.
As to `CC(C)(O)C1CCC(Nc2ccc3ncc(-c4cccc(C(F)(F)F)c4)n3n2)CC1` (configuration not stated) + Cc1cnc(CNC(=O)c2c(=O)c3ccc(N4CCCN(C)CC4)nc3n3c2sc2ccccc23)cn1, the viability, T/C is 0.22%.

For the compound `C=CC(=O)N1CCN(c2nc(=O)n(-c3c(C)ccnc3C(C)C)c3nc(-c4c(O)cccc4F)c(F)cc23)C(C)C1` (configuration not stated) + Cc1[nH]c2ccc(F)cc2c1-c1nc2c3cccnc3c3ncccc3c2[nH]1, the viability, T/C was 32.7%.

Consider `O=C(c1cc(Cc2n[nH]c(=O)c3ccccc23)ccc1F)N1CCN(C(=O)C2CC2)CC1` + CN(C)c1ccc(Nc2c3ccc(NC(=O)CCN4CCCC4)cc3nc3cc(NC(=O)CCN4CCCC4)ccc23)cc1, for which the viability, T/C is 6.71%.

As for `COc1ccc([C@@H](O)c2cc(-c3ncnc4cc(N5CCOCC5)ccc34)c(F)cc2Cl)nn1` + Cc1[nH]c2ccc(F)cc2c1-c1nc2c3cccnc3c3ncccc3c2[nH]1, the viability, T/C is 16%.
